US11814643B2, “Enhanced sleeping beauty transposons, kits and methods of transposition” (Max-Delbrück-Centrum für Molekulare Medizin in der …, priority 2016, dated 2023)

Experiments:
[1] = tested on: SB transposition; assay: Transposition assay with inhibition of cathepsin or HSP90; assay type: cell-based; details: cathepsin inhibition; E64D 20 μM vs control
Description: In order to monitor transcriptional changes activated by the transposase, a genome-wide transcriptional study was performed (HeLa, Affymetrix). […] While HSPA2, a variant of the heat shock protein HSP70, is a member of the stress response, cathepsins are lysosomal proteases and have a vital role in mammalian cellular turnover. […] In addition, by mitigating the cellular stress response induction of the apoptotic signalling is moderated and cell viability improved.
FIG. 6 A. Effect of E64D (an inhibitor of cathepsins, cystein proteases and calpain) on SB transposition. Transposition assay, (20 μM, right side; control, left side). RNAi approach against cathepsin(s) is expected to yield a similar improvement. B. Differential expression of host genes in the presence oft the transposase (HeLa, Affymetrix). […] Cathepsins (CTs) degrade polypeptides and are distinguished by substrate specificities (CTSH, CTSF, CTS2).

[2] = tested on: HeLa cells; assay: Transposition assay of neo-marked mutated transposon constructs; assay type: cell-based
Text: FIG. 4 Enhanced binding affinity at the inner DR improves Sleeping Beauty transposition. On the left, schematics of various neo-marked, mutated transposon constructs are depicted. On the right, the respective transpositional activities are shown in comparison to wild type transposon (construct 1), set as 100%. A. Composite DRs were created by changing either the PAI (black box) or the RED (grey box) recognition motifs into a high-affinity binding site (CAST-5) selected by the CASTing experiment (marked by stars at the PAI and stripped at the RED recognition motifs). B. The CAST-5 sequence (SEQ ID NO: 24 or 25) was used to replace only the PAI recognition motif, while the rest of the DR was wild type.
Altering the affinity of the binding sites might challenge the ordered assembly process occurring during transposition of a SB transposon. Thus, a series of transposon versions were constructed where 12DR and/or 14DR motifs were replaced by CASTing selected, high affinity binding sites (FIG. 4A), and the various constructs were subjected to transposition assays. […] Alternatively, the negative effect of CAST-5 on transposition could, at least partially, be accounted to its preferential selection for PAI binding, while compromising its RED function. Indeed, the CAST sequences are predicted to be sub-optimal for RED interaction, including the ability to distinguish between inner vs outer positions (FIG. 2). To distinguish between the two scenarios, we generated CAST-5/wt hybrids, where CAST-5 was replacing PAI only, otherwise kept the DRs wild type (wt). Again, we tested the impact of the hybrid motifs on transposition in various combinations. […]
HeLa cells were grown in DMEM (GIBCO BRL, Germany) supplemented with 10% Fecal Calf Serum Gold (FCS Gold) (PAA, Germany) and 1% antimycotic antibiotic (Invitrogen, Germany). […] After 3 weeks of selection, colonies were stained and counted as described in Ivics et al., Cell 1997. […]

| Compound | effect on SB transposition [1] | transpositional activity in comparison to wild type transposon (set as 100%) ([2]; 12DRs replaced by CAST-5 motif) | transpositional activity in comparison to wild type transposon (set as 100%) ([2]; 14DRs replaced by CAST-5 motif) | transpositional activity in comparison to wild type transposon (set as 100%) ([2]; all the four DRs changed to CAST-5) |
| --- | --- | --- | --- | --- |
| CCOC(=O)[C@H]1O[C@@H]1C(=O)N[C@@H](CC(C)C)C(=O)NCCC(C)C [E64D] | improvement |  |  |  |
| CAST-5: high-affinity SB transposase binding site selected by CASTing; 12DR SEQ ID NO: 24, 14DR SEQ ID NO: 25 (chain 1 GTGACGACCCCAAGTGTACATACACGCGCC; chain 2 GTGACGACCCCAAGTGTACATACACGCGCC; listed as DNA, chemistry not fully specified) |  | 65% | 3% | 2.2% |
